What was measured:
[1] = Fluorescence quantum yield in reference to fluorescein; type: physicochemical
Method: For an acetonitrile solution of fluorophore 7, when excited at […] or 384 nm band, an emission at 411 nm is observed. Similarly when a methanolic solution of fluorophore 7 is excited at 385 nm or 367 nm, an emission at 415 nm is observed. Finally for a solution of fluorophore 7 in the mixed solvent, when excited at 389 nm, an emission is observed at 423 nm (see FIG. 10). A 0.12 value for the quantum yield of fluorophore 7 in methanol was determined in reference to fluorescein in 0.1 M NaOH (φ=0.95) (using the procedure reported by Brannon, et al., J. Phys. Chem. 1978, 82, 705). Fluorophores of the present disclosure are further described in U.S. application Ser. No. 12/020,343, filed Jan. […]
When the fluorescent binder according to the present embodiments binds with Pb^2+ to form a Pb^2+/binder complex, the complex fluoresces with a high optical brightness. For example, according to the present embodiments, the unbound fluorescent binder represented by Formula V (or Formula IV, in its protected form) may have an excitation band with a absorbance maximum λmax at a wavelength centered around 415 nm, an emission band with a emission maximum λmax centered around 465 and a quantum yield for the fluorescence emission of φ=0.12. […] Quantum yields were calculated with reference to the quantum yield of fluorescein (φ=0.95). […]

[2] = Quantitative Pb2+ detection in NIST SRM 1643e Trace Elements in Water; conditions: 1 μM compound, NEt4OH 2:1, 2.5% MeOH and water
Method: The fluorescence emission intensity of the Pb^2+/complex in a sample may be measured and compared to a standard calibration plot or values to determine the Pb^2+ ion concentration in the sample. For example, To further examine the sensitivity and accuracy of the sensor, a NIST standard of trace elements in water (SRM® 1643e) in the concentration range of 1-50 ppb Pb^2+ was used and probed with 1 μM of a compound having the structure of Formula IV. In this case, accurate fluorescence responses were observed from 50 ppb to as low as 10 ppb. Further, compound IV was also used in quantitating the concentration of Pb^2+ in solutions prepared from a lead standard (NIST SRM® 3128).
All spectroscopic measurements were recorded in a solution of 2.5% methanol (for solubility reason) and water. HPLC grade MeOH and distilled water were used for each measurement. Absorption spectra were measured on a Varian Cary 300 spectrometer. Samples for absorption measurement were performed in 1-cm 1-cm quartz cuvettes (3.5 mL volume, Starna). Fluorescence spectra were measured on a Photon Technology International QuantaMaster™4 spectrofluorometer. Fluorescence measurements were performed in 1-cm 1-cm quartz cuvettes (3.5 mL volume, NSG Precision Cells). Fluorescence quantum yields were determined in reference to fluorescein in 0.1 NaOH (φ=0.95). […]

[3] = Stability in acid and base; type: physicochemical
From the text: (§1) These fluorophores are soluble in common organic solvents, for example, but not limited to, chloroform, methylene chloride, acetonitrile, and methanol and in mixtures of methanol and water. […] There is a shoulder near […] and no transition was observed beyond 430 nm. The molar extinction coefficients of these bands are near 10000 or higher. […] The spectral features remain unchanged in a mixed solvent such as 2.5% methanol 97.5% water. […] Thus, in principle, this compound can be used as a pH sensor. That is, the fluorescence emission intensity may vary according to the pH of the environment or solution that the fluorophore is in.

[4] = Apparent dissociation constant for Pb2+ from fluorescence of the complex (Hill fit); type: binding; conditions: pH=10; read-out: apparent dissociation coefficient, Kd, for Pb^2+
From the text: [drawing 8] or the corresponding thiolate compound (i.e., where one or both thiols of the ene-dithiol are deprotonated). In the presence of Pb^2+ ions and a hydrolyzing agent, the dithiocarbonate functionality of compound IV may be hydrolyzed and the resulting fluorescent binder compound binds with the Pb^2+ to form a Pb^2+/binder complex. According to specific embodiments, the fluorescent binder of the present disclosure has a high sensitivity for Pb^2+ ions, even in the presence of other metal ions. […] In other embodiments, the Kd may be less than 300 nM, or in certain embodiments less than 250 nM. […] As will be understood by one of ordinary skill in the art, the Kd for binding of Pb^2+ may vary according to the conditions of the experiment, including, but not limited to solvent, temperature, pH, etc. It should be noted that in other embodiments, other compounds represented by Formula I may also serve as selective binders of lead, or other metal ions.
All spectroscopic measurements were recorded in a solution of 2.5% methanol (for solubility reason) and water. HPLC grade MeOH and distilled water were used for each measurement. Absorption spectra were measured on a Varian Cary 300 spectrometer. Samples for absorption measurement were performed in 1-cm 1-cm quartz cuvettes (3.5 mL volume, Starna). […]

[5] = Turn-on fluorescence response to Pb2+ (Example 3, FIG. 49); conditions: 5 μM, 2.5% methanol-water; unbound at 465 nm, Pb^2+ complex at 423 nm
From the text: When the fluorescent binder according to the present embodiments binds with Pb^2+ to form a Pb^2+/binder complex, the complex fluoresces with a high optical brightness. For example, according to the present embodiments, the unbound fluorescent binder represented by Formula V (or Formula IV, in its protected form) may have an excitation band with a absorbance maximum λmax at a wavelength centered around 415 nm, an emission band with a emission maximum λmax centered around 465 and a quantum yield for the fluorescence emission of φ=0.12. When the fluorescent binder is bound to Pb^2+ ions, the resulting Pb^2+/binder complex may have an excitation band with a λmax centered around 389 nm, an emission band with a λmax centered around 423 nm, and a quantum yield of φ=0.63. Quantum yields were calculated with reference to the quantum yield of fluorescein (φ=0.95). […]
In this Example, the “turn on” response of the fluorophore corresponding to Formula V (Formula IV in protected form) was determined. The fluorescence emission spectrum of a 5 μM solution of the fluorophore in 2.5% methanol-water was recorded with a maximum emission intensity observed at λmax=465 nm (expanded spectrum shown in the inset in FIG. 49). […] The fluorescence emission spectrum of the resulting Pb^2+/fluorophore complex was recorded with a maximum fluorescence emission intensity observed at λmax=423 nm as presented in FIG. 49.

[6] = Fluorescence emission with Pb2+ versus other metal ions (Example 5, FIG. 51); conditions: 5 μM fluorophore, 75 μM Pb^2+, other metal ion 75 μM or 2 millimolar
From the text: According to certain embodiments, the fluorescent binder discussed herein selectively binds to Pb^2+ over other metal ions including other transition metal ions. According to various embodiments, the fluorescence emission intensity of the Pb^2+/binder complex is greater than a fluorescence emission intensity of other metal ion/binder complexes. Other metal ions that may form a metal ion/binder complex that has a lower fluorescence emission intensity than that of the Pb^2+/binder complex include, but are not limited to Li^+, Na^+, K^+, Ca^2+, Mg^2+, Fe^2+, Co^2+, Ni^2+, Cu^2+, Zn^2+, Cd^2+, Mn^2+, Hg^2+, Sn^2+, As^3+, and mixtures thereof. For example, according to one non-limiting embodiment, the Pb^2+/binder complex in the presence of the other metal ions may have a fluorescence emission intensity at least about 10 times greater than the fluorescence emission intensity of another metal ion/binder complex. In other embodiments, the Pb^2+/binder complex in the presence of the other metal may have a fluorescence emission intensity at least about 20 times greater than the fluorescence emission intensity of another metal ion/binder complex. FIG. 51 compares the fluorescence emission intensity of the Pb^2+/binder complex in the presence of the other metal with the fluorescence emission intensity of the other metal ion/binder complexes (i.e., in the absence of Pb^2+). […]

Solubility = type: physicochemical
From the text: as §1
In addition, the Pb^2+/binder complex fluoresces with greater emission intensity over a wide pH range in aqueous solutions. According to one embodiment the Pb^2+/binder complex fluoresces with a high fluorescence emission intensity, for example with a quantum yield of greater than 0.5 (φ>0.5), at pH values of 10 or less. […] Thus, the term “high fluorescence emission intensity” means a fluorescence emission intensity having a quantum efficiency of greater than 0.5 (φ>0.5 as measured relative to a fluorescein reference). […] With other fluorophores, the fluorescence emission intensity of the fluorophore may decrease at low pH levels. For comparison, as discussed herein, the quantum yield for fluorescence emission of fluorescein decreases at pH levels less than ˜8.

CC1(C)Oc2nc3ccccc3nc2-c2sc(=O)sc21 [Compound 7, 4,4-dimethyl-4H-5-oxa-1,3-dithia-6,11-diaza-cyclopenta[a]anthracen-2-one]
quantum yield ([1]; in methanol, reference fluorescein in 0.1 M NaOH): 0.12 | Pb^2+ range detected quantitatively by increase in fluorescence response [2]: 10-50 ppb | stability in acid ([3]; acid): stable in acid | stability in base ([3]; base (pH>7)): transforms into a less fluorescent substance

CC1(C)Oc2nc3ccccc3nc2C(S)=C1S [Formula V]
Kd [4]: 0.217 µM | quantum yield for the fluorescence emission ([1]; unbound binder or Pb^2+ complex, reference fluorescein (φ=0.95)): 0.12 | maximum fluorescence emission intensity [5]: ~6000 counts/second | fluorescence emission intensity with Pb^2+ plus other metal ion versus other metal ion alone [6]: significantly greater fluorescence emission intensity | solubility in aqueous solution (Solubility): soluble in aqueous solution

Reference: patent US8247551B2, “Lead sensor and methods of use” (priority 2007, dated 2012)
